Reference: publication PMC6040592 (Biochemistry, 2017)

What was measured:
AaROM [1] = experiment: AaROM in vitro activity assay; assay type: biochemical, Aquifex aeolicus
E. coli GlpG [2] = target: T1, E. coli GlpG (Escherichia coli, UniProt P09391)
[3] = target: neutrophil elastase, ELA2 (Homo sapiens, UniProt P08246); conditions: same concentration range in which GlpG is inhibited
GlpG = GlpG (Escherichia coli, UniProt P09391); conditions: 1 h preincubation at 10 times IC50, 100-fold dilution, 100 min
GlpG, sequence (P09391 whole entry): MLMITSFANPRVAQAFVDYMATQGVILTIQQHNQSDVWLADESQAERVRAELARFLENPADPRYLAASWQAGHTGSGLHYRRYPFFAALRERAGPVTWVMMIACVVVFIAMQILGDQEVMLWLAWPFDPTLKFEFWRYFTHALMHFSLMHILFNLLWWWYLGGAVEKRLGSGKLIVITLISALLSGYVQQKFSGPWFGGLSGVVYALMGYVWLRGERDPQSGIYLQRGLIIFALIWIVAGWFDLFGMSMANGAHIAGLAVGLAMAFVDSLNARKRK

wild-type GlpG = wild-type GlpG (Escherichia coli, UniProt P09391); conditions: 50 μM inhibitor, 23 °C overnight
wild-type GlpG, sequence (P09391 whole entry): as above

HiGlpG = HiGlpG (Haemophilus influenzae, UniProt P44783); experiment: Activity-based probe; conditions: 50 μM
HiGlpG, sequence (P44783 whole entry): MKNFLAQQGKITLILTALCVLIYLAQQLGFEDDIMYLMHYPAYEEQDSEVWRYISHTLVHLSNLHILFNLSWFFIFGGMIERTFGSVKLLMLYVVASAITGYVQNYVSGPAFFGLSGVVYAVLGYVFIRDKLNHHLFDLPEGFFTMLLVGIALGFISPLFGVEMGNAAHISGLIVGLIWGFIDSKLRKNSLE

VcROM = experiment: Activity-based probe; conditions: 50 μM
PsAarA = PsAarA (Providencia stuartii, UniProt P46116); experiment: Activity-based probe; conditions: 50 μM
PsAarA, sequence (P46116 whole entry): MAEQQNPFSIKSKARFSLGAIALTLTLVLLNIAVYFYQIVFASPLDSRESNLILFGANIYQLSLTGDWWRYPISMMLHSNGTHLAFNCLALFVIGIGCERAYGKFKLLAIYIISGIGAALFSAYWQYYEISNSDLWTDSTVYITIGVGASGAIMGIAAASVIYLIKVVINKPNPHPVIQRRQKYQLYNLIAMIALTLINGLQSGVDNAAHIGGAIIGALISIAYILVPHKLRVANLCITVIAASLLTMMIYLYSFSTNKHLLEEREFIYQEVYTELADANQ

MjROM = experiment: Activity-based probe; conditions: 50 μM
AaROM [4] = experiment: Activity-based probe; conditions: 50 μM
TmROM = experiment: Activity-based probe; conditions: 50 μM
E. coli GlpG [5] = target: T1, E. coli GlpG; experiment: GlpG in vitro activity assay; assay type: biochemical; conditions: read-out: IC50 [μM] GlpG; inhibitor preincubated 30 min at 37 °C, Gurken substrate, 90 min
[6] = system: nine different rhomboid proteases; experiment: Activity-based probe; assay type: binding; conditions: 50 μM
bovine chymotrypsin = bovine chymotrypsin (Bos taurus, UniProt P00766); conditions: read-out: IC50 α-chymotrypsin, value reported in the literature; cited from earlier work
rhomboids = conditions: read-out: IC50 against rhomboids; isocoumarins; cited from earlier work

T1 sequence (P09391 whole entry): as the sequence (P09391 whole entry) above
neutrophil elastase, ELA2, sequence (P08246 30-267): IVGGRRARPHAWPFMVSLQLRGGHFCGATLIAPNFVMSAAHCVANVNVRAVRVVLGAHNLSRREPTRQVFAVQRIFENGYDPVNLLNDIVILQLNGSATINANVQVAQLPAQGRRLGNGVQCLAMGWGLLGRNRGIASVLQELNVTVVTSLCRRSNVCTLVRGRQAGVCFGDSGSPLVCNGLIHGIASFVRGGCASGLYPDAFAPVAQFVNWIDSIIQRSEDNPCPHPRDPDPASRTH

| SMILES | fold lower potency toward AaROM in comparison to GlpG (AaROM [1]) | inhibition of ABP labelling, E. coli GlpG (E. coli GlpG [2]) | inhibition of neutrophil elastase, ELA2 [3] | recovery of GlpG activity after rapid dilution (GlpG) | mass shift of inhibitor-GlpG adduct (wild-type GlpG) | inhibition of ABP labelling, HiGlpG (HiGlpG) | inhibition of ABP labelling, VcROM (VcROM) | inhibition of ABP labelling, PsAarA (PsAarA) | inhibition of ABP labelling, MjROM (MjROM) | inhibition of ABP labelling, AaROM (AaROM [4]) | inhibition of ABP labelling, TmROM (TmROM) | IC50 (E. coli GlpG [5]) | inhibition of the activity of all nine rhomboids [6] | IC50 (bovine chymotrypsin) | IC50 (rhomboids) |
| --- | --- | --- | --- | --- | --- | --- | --- | --- | --- | --- | --- | --- | --- | --- | --- |
| O=C(OCN1C(=O)c2ccccc2S1(=O)=O)c1ccccc1Cl [BSc5195] | approximately 100 fold | active | appreciable inhibition | less but noticeable recovery of GlpG activity | 195 Da | active | active | active | active | only partially inhibited | only partially inhibited |  |  |  |  |
| O=c1oc(Cl)c(Cl)c2ccccc12 [DCI, dichloroisocoumarin] |  |  |  |  |  |  |  |  |  |  |  | 19 µM | 80–100% | 2.8 µM |  |
| COc1oc(=O)c2cc(N)ccc2c1Cl [JLK-6, reference compound] |  |  |  | No recovery of enzyme activity |  |  |  |  |  |  |  |  |  |  | ~6 µM |
